Data reported in ChEMBL document CHEMBL1201862, “PubChem BioAssay data set” (2004).
Active and inactive are the calls of the source.

Key:
Streptococcus = assay: GAS UMAA2166 growth inhibition – luminescence, BacTiterGlo, counter-screen for streptokinase expression inhibitor project, dose response (AID 1915); type: functional, organism-based;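 note: potency for reduction of bacterial viability or growth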
[1] = test system: Streptococcus sp. 'group A'; assay: Streptococcus pyogenes SK(-)GAS viability under kanamycin – luminescence, BacTiterGlo, confirmation, counter-screen for streptokinase expression inhibitor project, dose response (AID 1900); type: functional, organism-based
[2] = HGIII-sPLA2 enzyme inhibition potency – biochemical, QFRET, IC50, dose response (AID 743457);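 note: green fluorescence rise as the enzyme cleaves BODIPY PC-A2 in liposomes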
cells [3] = type: functional, cell-based
cells [4] = type: functional, cell-based; remark: listed apart in the source
cells [5] = type: functional, cell-based; remark: listed apart in the source
cells [6] = type: functional, cell-based; remark: listed apart in the source
[7] = biological target: T1, Oxysterols receptor LXR-beta (Homo sapiens, UniProt P55055); type: functional, cell-based;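 note: agonist activity at LXR measured by a cell-based luminescence readout across a dose range, run as a counterscreen for daf-12 agonists; HEK293 cells with Gal4-LXR fusion and GAL4-driven luciferase reporter; potency for activation of Gal4-LXR reporter so compounds are agonists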
T1 sequence (P55055 whole entry): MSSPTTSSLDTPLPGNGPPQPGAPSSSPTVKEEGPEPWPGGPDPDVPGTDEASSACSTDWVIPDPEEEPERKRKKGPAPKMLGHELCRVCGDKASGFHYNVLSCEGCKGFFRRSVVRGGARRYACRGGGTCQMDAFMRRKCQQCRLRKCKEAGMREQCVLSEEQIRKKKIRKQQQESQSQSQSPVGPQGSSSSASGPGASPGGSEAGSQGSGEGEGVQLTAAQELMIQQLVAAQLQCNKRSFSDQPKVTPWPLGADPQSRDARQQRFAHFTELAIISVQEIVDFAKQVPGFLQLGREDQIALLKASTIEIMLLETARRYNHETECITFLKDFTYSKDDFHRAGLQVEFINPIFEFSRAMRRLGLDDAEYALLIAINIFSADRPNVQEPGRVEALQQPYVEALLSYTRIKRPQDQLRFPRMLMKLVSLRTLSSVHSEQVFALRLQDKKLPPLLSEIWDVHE

Galanin receptor type 3 = Galanin receptor type 3 (Homo sapiens, UniProt O60755); assay: Fluorescence-based cell-based primary high throughput dose response assay to identify antagonists of the Galanin Receptor 3 (GalR3).; type: functional
Galanin receptor type 3, sequence (O60755 whole entry): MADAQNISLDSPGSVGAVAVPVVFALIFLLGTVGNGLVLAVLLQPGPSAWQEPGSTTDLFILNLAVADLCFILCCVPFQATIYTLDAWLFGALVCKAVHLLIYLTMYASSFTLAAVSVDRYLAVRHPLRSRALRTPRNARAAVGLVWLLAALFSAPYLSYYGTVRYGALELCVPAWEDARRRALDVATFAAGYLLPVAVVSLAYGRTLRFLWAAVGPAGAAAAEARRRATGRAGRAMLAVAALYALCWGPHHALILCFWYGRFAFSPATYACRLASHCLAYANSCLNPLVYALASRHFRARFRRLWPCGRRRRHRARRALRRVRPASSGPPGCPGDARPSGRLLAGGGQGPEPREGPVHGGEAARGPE

cells [8] = type: functional, cell-based; settings: HEK-CNG
[9] = general mammalian cell viability loss – activator set, cherry-pick, cytotoxicity control for miR-122 modulator project, dose response (AID 720690); type: functional, cell-based;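 note: HEK293T human cells scored for general mammalian cytotoxicity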
[10] = general mammalian cell viability loss – inhibitor set, cherry-pick, set 2, cytotoxicity control for miR-122 modulator project, dose response (AID 720697); type: functional, cell-based
[11] = biological target: T2, Tyrosyl-DNA phosphodiesterase 2 (Homo sapiens, UniProt O95551); assay: potency against TDP2 phosphodiesterase activity – biochemical, epi absorbance, IC50, dose response (AID 743297)
T2 sequence (O95551 whole entry): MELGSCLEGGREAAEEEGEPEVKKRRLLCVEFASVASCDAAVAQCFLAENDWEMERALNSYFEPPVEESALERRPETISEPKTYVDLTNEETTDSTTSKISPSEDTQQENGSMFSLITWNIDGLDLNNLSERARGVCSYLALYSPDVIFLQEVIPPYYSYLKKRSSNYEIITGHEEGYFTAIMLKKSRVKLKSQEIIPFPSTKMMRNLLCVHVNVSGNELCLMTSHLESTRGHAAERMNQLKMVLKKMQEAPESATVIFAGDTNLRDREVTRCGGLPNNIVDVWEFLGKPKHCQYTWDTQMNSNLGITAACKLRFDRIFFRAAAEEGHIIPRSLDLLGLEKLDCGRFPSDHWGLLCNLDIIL

[12] = biological target: T3, Rac GTPase-activating protein 1 (Homo sapiens, UniProt Q9H0H5); assay: blockers of MgcRacGAP-driven Rac1 GTP hydrolysis – biochemical, ADP Hunter fluorescence, primary and confirmatory, confirmation (AID 624330); type: functional
T3 sequence (Q9H0H5 whole entry): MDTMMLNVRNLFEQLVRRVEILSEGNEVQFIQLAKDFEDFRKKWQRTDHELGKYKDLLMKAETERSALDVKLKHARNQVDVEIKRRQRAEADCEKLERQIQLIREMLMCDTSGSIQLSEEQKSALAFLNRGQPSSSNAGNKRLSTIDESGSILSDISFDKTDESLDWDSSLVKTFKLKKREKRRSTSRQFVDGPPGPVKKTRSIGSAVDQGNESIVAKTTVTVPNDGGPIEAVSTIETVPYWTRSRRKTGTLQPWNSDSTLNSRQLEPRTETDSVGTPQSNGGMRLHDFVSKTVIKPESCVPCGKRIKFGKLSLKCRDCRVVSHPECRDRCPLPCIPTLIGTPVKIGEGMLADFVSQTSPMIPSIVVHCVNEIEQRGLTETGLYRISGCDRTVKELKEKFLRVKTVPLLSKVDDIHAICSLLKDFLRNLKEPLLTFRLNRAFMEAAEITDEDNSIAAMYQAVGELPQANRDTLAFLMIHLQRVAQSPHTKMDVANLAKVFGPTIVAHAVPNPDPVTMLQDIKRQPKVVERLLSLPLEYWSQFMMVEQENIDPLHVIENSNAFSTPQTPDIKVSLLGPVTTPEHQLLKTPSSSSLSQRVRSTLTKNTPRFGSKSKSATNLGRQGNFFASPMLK

[13] = viability loss in HeLa cells – cytotoxicity control for MgcRacGAP inhibitor project, dose response (AID 624300); type: functional
[14] = bead-based luminescence quenchers, dual-tagged ARNT – biochemical, AlphaScreen, cherry-pick, artefact control for ARNT-TACC3 interaction inhibitor project, dose response (AID 651705); type: functional;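 note: AlphaScreen bead proximity signal that flags compounds interfering with the detection technology; potency reflects signal decrease which marks the compound as an assay artifact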
[15] = biological target: T4, Histone-lysine N-methyltransferase NSD2 (Homo sapiens, UniProt O96028); type: biochemical
T4 sequence (O96028 whole entry): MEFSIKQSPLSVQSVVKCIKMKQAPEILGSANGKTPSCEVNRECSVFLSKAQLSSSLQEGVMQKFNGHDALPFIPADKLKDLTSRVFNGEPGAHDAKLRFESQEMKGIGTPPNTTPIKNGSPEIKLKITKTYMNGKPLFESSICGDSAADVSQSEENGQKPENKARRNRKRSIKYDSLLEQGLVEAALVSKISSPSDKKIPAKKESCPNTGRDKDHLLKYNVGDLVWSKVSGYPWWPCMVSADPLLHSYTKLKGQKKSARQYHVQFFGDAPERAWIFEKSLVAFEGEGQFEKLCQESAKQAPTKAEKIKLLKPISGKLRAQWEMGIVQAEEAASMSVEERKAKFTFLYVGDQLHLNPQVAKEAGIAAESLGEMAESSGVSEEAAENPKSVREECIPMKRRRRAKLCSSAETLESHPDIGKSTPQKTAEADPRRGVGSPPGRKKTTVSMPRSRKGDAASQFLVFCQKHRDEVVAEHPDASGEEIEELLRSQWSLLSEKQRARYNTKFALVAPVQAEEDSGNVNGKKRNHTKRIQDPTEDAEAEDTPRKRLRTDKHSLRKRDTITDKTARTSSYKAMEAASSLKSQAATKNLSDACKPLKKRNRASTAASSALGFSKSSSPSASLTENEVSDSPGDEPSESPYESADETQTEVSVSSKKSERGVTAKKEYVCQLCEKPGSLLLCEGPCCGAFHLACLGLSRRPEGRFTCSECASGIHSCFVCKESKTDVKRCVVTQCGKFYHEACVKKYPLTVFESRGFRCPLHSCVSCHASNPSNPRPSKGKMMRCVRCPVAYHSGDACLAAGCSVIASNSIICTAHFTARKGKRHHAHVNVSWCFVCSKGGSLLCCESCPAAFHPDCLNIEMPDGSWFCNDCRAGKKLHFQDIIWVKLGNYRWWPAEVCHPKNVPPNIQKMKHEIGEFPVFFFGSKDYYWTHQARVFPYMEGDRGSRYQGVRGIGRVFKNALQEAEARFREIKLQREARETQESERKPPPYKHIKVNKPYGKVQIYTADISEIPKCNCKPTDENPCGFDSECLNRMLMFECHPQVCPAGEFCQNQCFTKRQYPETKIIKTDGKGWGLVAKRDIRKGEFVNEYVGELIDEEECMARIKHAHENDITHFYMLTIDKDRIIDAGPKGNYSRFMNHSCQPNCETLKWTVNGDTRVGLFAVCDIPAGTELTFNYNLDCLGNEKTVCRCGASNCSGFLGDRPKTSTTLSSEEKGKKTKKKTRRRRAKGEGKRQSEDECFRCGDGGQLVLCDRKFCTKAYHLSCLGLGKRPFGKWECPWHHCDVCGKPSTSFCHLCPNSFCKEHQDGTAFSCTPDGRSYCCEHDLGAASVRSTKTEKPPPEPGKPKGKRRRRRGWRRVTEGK

O=C(Cc1ccccc1)NNC(=S)NC(=O)c1cccs1
EC50 (Streptococcus): 7.51 µM (active)
EC50 [1]: 3.33 µM (active)
IC50 [2]: > 122 µM (inactive)

CCN1CN(CCc2ccccc2)CN=C1S
EC50 (cells [3]): > 350 µM (not active)
IC50 (cells [4]): > 29.9 µM (inactive)
EC50 (cells [5]): > 350 µM (not active)
EC50 (cells [6]): > 29.9 µM (inactive)

OCc1ccc(N=Nc2ccccc2)cc1
EC50 [7]: > 67.5 µM (inactive)
EC50 (cells [3]): > 350 µM (not active)
EC50 (cells [5]): 8.65 µM (active)

CSc1ccc(CN2CCN(C(=O)c3ccc([N+](=O)[O-])cc3)CC2)cc1
IC50 (Galanin receptor type 3): 1.91 µM (active)
EC50 (cells [8]): > 29.9 µM (inactive)

CC(=O)c1ccc(Nc2nc3ccc(C)cc3n3cnnc23)cc1
AC50 [9]: 0.551 µM (active)

C=CCNC(=S)NNC(=O)Cn1c(-c2ccccc2)cc(=O)n2ncnc12
AC50 [10]: 4.83 µM (active)

COc1cc(CCNC2=CC(=O)c3ncccc3C2=O)ccc1O
IC50 [11]: 67.8 µM (inactive)
IC50 [12]: 62.2 µM (active)
CC50 [13]: 21.3 µM (active)
AC50 [14]: 82.2 µM (active)
AC50 [15]: 1.24 µM (active)
